Data: US20200024278A1, “COMPOSITION COMPRISING ANTIBIOTIC COMPOUND AND AN HETEROCYCLIC COMPOUND AND THEIR USE IN PREVENTING OR TREATING BACTERIAL INFECTIONS” (MUTABILIS, priority 2016, published 2020)

Tests used:
Assay in all cases: MIC, broth microdilution (CLSI), substance alone or ATB combined with compound at 4 or 8 μg/mL
ECO 190317 = format: cell-based, E. coli; conditions: ECO 190317; for MIC ATB combined with compound: compound @8 μg/ml
Summary of the method: (§1)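 Potentiation format: antibiotic dilution series run with test compound held at 4 or 8 μg/mL, alongside compound-alone MICs. Broth microdilution per CLSI in ca-MHB, 16-20 h at 35° C.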

ECO UFR39 = format: cell-based, E. coli; conditions: ECO UFR39; for MIC ATB combined with compound: compound @8 μg/ml
Summary of the method: as §1

KPN 6299 = format: cell-based, K. pneumoniae; conditions: compound @8 μg/ml
Summary of the method: as §1

KPN BAA-1898 = format: cell-based, K. pneumoniae; conditions: KPN BAA-1898; for MIC ATB combined with compound: compound @8 μg/ml
Summary of the method: as §1

KPN UFR42 = format: cell-based, K. pneumoniae; conditions: KPN UFR42; for MIC ATB combined with compound: compound @8 μg/ml
Summary of the method: as §1

ECL P99 = format: cell-based, E. cloacae; conditions: ECL P99; for MIC ATB combined with compound: compound @8 μg/ml
Summary of the method: as §1

PAE 105250 = format: cell-based, P. aeruginosa; conditions: PAE 105250; for MIC ATB combined with compound: compound @8 μg/ml
Summary of the method: as §1

PAE UFR48 = format: cell-based, P. aeruginosa; conditions: PAE UFR48; for MIC ATB combined with compound: compound @8 μg/ml
Summary of the method: as §1

PAE UFR90 = format: cell-based, P. aeruginosa; conditions: PAE UFR90; for MIC ATB combined with compound: compound @8 μg/ml
Summary of the method: as §1

SAU 29213 = format: cell-based, S. aureus; conditions: for MIC ATB combined with compound: compound @8 μg/ml, SAU 29213
Summary of the method: as §1

SPN 49619 = format: cell-based, S. pneumoniae; conditions: SPN 49619; for MIC ATB combined with compound: compound @8 μg/ml
Summary of the method: as §1

ABA UFR154 = format: cell-based, A. baumannii; conditions: substance alone
Summary of the method: as §1

ABA UFR155 = format: cell-based, A. baumannii; conditions: substance alone
Summary of the method: as §1

O=C(O)C(F)(F)F.O=C1N2C[C@H](c3scnc3[C@H]2c2ncc[nH]2)N1OS(=O)(=O)[O-].[Na+] (relative stereo) [Example 6, sodium and 2,2,2-trifluoroacetate [trans-7-(1H-imidazol-3-ium--2-yl)-9-oxo-3-thia-5,8,10-triaza-tricyclo[6.2.1.0^2,6]undeca-2(6),4-dien-10-yl]sulfate]
<=0.031 μg/mL: MIC ATB combined with compound (KPN UFR42; ATB PIP) | MIC ATB combined with compound (SAU 29213; ATB FEP) | MIC ATB combined with compound (SAU 29213; ATB MEM)
<0.125 µg/mL: MIC ATB combined with compound (ECO 190317; ATB FOS) | MIC ATB combined with compound (ECO UFR39; ATB FOS) | MIC ATB combined with compound (KPN UFR42; ATB FOS) | MIC ATB combined with compound (ECL P99; ATB FOS) | MIC ATB combined with compound (SPN 49619; ATB FOS)
<0.031 µg/mL: MIC ATB combined with compound (ECO 190317; ATB ATM) | MIC ATB combined with compound (ECO 190317; ATB FEP) | MIC ATB combined with compound (ECO 190317; ATB MEM) | MIC ATB combined with compound (ECO 190317; ATB PIP) | MIC ATB combined with compound (ECO UFR39; ATB ATM) | MIC ATB combined with compound (ECO UFR39; ATB FEP) | MIC ATB combined with compound (ECO UFR39; ATB MEM) | MIC ATB combined with compound (ECO UFR39; ATB PIP) | MIC ATB combined with compound (KPN 6299; ATB ATM) | MIC ATB combined with compound (KPN 6299; ATB FEP) | MIC ATB combined with compound (KPN 6299; ATB MEM) | MIC ATB combined with compound (KPN 6299; ATB PIP) | MIC ATB combined with compound (KPN BAA-1898; ATB ATM) | MIC ATB combined with compound (KPN BAA-1898; ATB FEP) | MIC ATB combined with compound (KPN BAA-1898; ATB MEM) | MIC ATB combined with compound (KPN BAA-1898; ATB PIP) | MIC ATB combined with compound (KPN UFR42; ATB ATM) | MIC ATB combined with compound (KPN UFR42; ATB FEP) | MIC ATB combined with compound (KPN UFR42; ATB MEM) | MIC ATB combined with compound (ECL P99; ATB ATM) | MIC ATB combined with compound (ECL P99; ATB FEP) | MIC ATB combined with compound (ECL P99; ATB MEM) | MIC ATB combined with compound (ECL P99; ATB PIP) | MIC ATB combined with compound (SPN 49619; ATB ATM) | MIC ATB combined with compound (SPN 49619; ATB FEP) | MIC ATB combined with compound (SPN 49619; ATB MEM) | MIC ATB combined with compound (SPN 49619; ATB PIP)
4 µg/mL: MIC (KPN BAA-1898; substance alone) | MIC (KPN UFR42; substance alone) | MIC (ECL P99; substance alone) | MIC ATB combined with compound (PAE 105250; ATB ATM) | MIC ATB combined with compound (PAE UFR48; ATB MEM) | MIC ATB combined with compound (PAE UFR90; ATB FEP)
<=0.125 μg/mL: MIC ATB combined with compound (KPN BAA-1898; ATB FOS) | MIC ATB combined with compound (SAU 29213; ATB FOS)
0.063 µg/mL: MIC ATB combined with compound (SAU 29213; ATB PIP)
0.25 µg/mL: MIC ATB combined with compound (KPN 6299; ATB FOS)
32 µg/mL: MIC ATB combined with compound (PAE UFR48; ATB FEP) | MIC ATB combined with compound (PAE UFR48; ATB FOS) | MIC (ABA UFR154)
1 µg/mL: MIC (ECO 190317; substance alone) | MIC ATB combined with compound (PAE UFR90; ATB MEM)
>32 µg/mL: MIC ATB combined with compound (PAE 105250; ATB PIP) | MIC (PAE 105250; substance alone) | MIC ATB combined with compound (PAE UFR48; ATB PIP) | MIC (PAE UFR48; substance alone) | MIC ATB combined with compound (PAE UFR90; ATB PIP) | MIC (PAE UFR90; substance alone) | MIC ATB combined with compound (SAU 29213; ATB ATM) | MIC (SAU 29213; substance alone, SAU 29213 (MSSA 29213))
16 µg/mL: MIC (SPN 49619; substance alone) | MIC (ABA UFR155)
8 µg/mL: MIC ATB combined with compound (PAE 105250; ATB FEP) | MIC ATB combined with compound (PAE UFR48; ATB ATM) | MIC ATB combined with compound (PAE UFR90; ATB ATM) | MIC ATB combined with compound (PAE UFR90; ATB FOS)
2 µg/mL: MIC (ECO UFR39; substance alone) | MIC ATB combined with compound (PAE 105250; ATB MEM)
128 µg/mL: MIC ATB combined with compound (PAE 105250; ATB FOS)
